# Laboratory results: patent US11596615B2, “Compositions and methods for treatment of insulin resistance” (Temple University—Of The Commonwealth System Of Higher …, priority 2016, dated 2023)
# Counter-ions that a name gives are not always drawn.
# Key:
# [1] = Liver microsome stability, rat; assay type: in vitro ADME, Rat (pooled Sprague Dawley; male); details: male, Sprague Dawley; rat liver microsomes, 1 μM compound, 0.5 mg/ml microsomal protein, 37° C., 2 mM NADPH
# Protocol: The stability of the title compound in the presence of liver microsomes was tested at 1 μM compound and 0.5 mg/ml rat or human microsomal protein, at 37° C. with 2 mM NADPH (standard in vitro screening concentrations). […] The “t1/2” values are the maximum time employed for the respective assays.
# [2] = Solution stability in mouse plasma; assay type: in vitro ADME, mouse (male C57BL/6); details: male, C57BL/6; 1 μM in mouse plasma, 37° C.
# Protocol: The stability of the title compound was tested in the following media, in the following concentrations: (i) 1 μM in mouse (male C57BL/6) plasma, (ii) 1 μM in PBS (with Ca and Mg) (control treatment); (iii) 5 μM in stimulated gastric fluid (SGF; 0.2% NaCl; 84 mM HCl; 0.32% pepsin; pH 1.2); (iv) 5 μM in stimulated intestinal fluid (SIF; 50 mM KP, pH 6.8; 10 mg/ml pancreatin); and (v) 5 μM in PBS (+Ca and Mg) (control treatment). The results are as follows: (i) 1 μM in mouse plasma, t1/2>6 hr at 37° C.; (ii) 1 μM in PBS, t1/2>6 hr at 37° C.; (iii) 5 μM in SGF, t1/2>3 hrs at 37° C.; (iv) 5 μM in SIF, t1/2>3 hrs at 37° C.; and (v) 5 μM in PBS, t1/2>3 hr at 37° C. The “t1/2” values are the maximum time employed for the respective assays.
# [3] = Intravenous and oral pharmacokinetic study in mice; assay type: in vivo; details: for VSS: dihydrochloride
# Protocol: A pharmacokinetic study was conducted with mice (Charles river) (N=3). The animals had free access to water and standard laboratory chow under a controlled 12 hour light-dark cycle. After at least one week of an acclimation period, the mice were administrated a dose of 5 mg/kg of the title compound ((S))-2-amino-6-((3-aminopropyl)amino)hexanoic acid dihydrochloride) intravenously or 10 mg/kg orally. For both intravenous and oral administration, the compound was dissolved in saline. After intravenous administration, blood samples were collected at 10 min, 30 min, 1, 2, 4, 8 and 24 hours. For oral gavage, blood samples were collected at 15 min, 30 min 1, 2, 4, 8 and 24 hours. The blood samples were collected in polythene tubes with heparin sodium 100 unit/mL and centrifuged at 6000×g for 10 min to obtain plasma, which was stored at −20° C. until analysis.
# The title compound concentration in mouse plasma was quantitated using an LC/MS/MS (API 4000, AB SCIEX). Briefly, 50 μl mouse plasma was added to 100 μl acetonitrile with internal standard (Diltiazem 10 ng/ml). The mixture was vortexed and centrifuged, and 5 μl supernatant was injected into LC/MS/MS for analysis. The separation was performed on a Waters C18 column (2.1×50 mm, […] particle size). The mobile phase consisted of 0.2% pentafluoropropionic acid in water:acetonitrile by gradient elution. A Sciex API 4000 mass spectroscopy system equipped with an electrospray source in the positive-ion multiple reaction monitoring (MRM) mode was used for detection. The MRM transitions monitored for the title compound and diltiazem were m/z 204.4/84.2 and m/z 415/178, respectively. The retention time is 12.5 min for (S)-2-amino-6-((3-aminopropyl)amino)hexanoic acid and 14 min for diltiazem. The quantitation ranged from 25 to 1000 ng/ml.
# [4] = Predicted concentration-time profile for oral dosing in drinking water; details: 10 mg/kg/day in drinking water, modeled as six oral doses over 12 hrs, plasma
# Protocol: The maximum predicted concentration is 0.82 μg/mL and the minimum concentration 0.1 μg/mL. The dose can be adjusted proportionally to achieve the desired concentrations.
smiles,measurement,setting,value
"NCCCNCCCC[C@H](N)C(=O)O [APL, (S)-2-amino-6-((3-aminopropyl)amino)hexanoic acid dihydrochloride]",half-life at 1 μM,[1],> 1 h
same,microsomal CLint at 1 μM,[1],< 23 µL/min/mg
same,half-life at 1 μM,[2],> 6 h
same,VSS,"[3]; IV, 5 mg/kg",0.4 L/kg
same,AUCtot,"[3]; IV, 5 mg/kg, plasma",4.72 μg*hr/m
same,CL,"[3]; PO, 10 mg/kg",0.285 L/h
same,VSS,"[3]; PO, 10 mg/kg, listed as (S)-2-amino-6-((3-aminopropyl)amino)hexanoic acid dihydrochloride",2.12 L/kg
same,VSS,"[3]; PO, 10 mg/kg, listed as (S)-2-amino-6-((3-aminopropyl)amino)hexanoic acid",2.1 L/kg
same,AUCtot,"[3]; PO, 10 mg/kg, plasma",10.45 μg*hr/m
same,Cmax,"[3]; mouse, IV, 5 mg/kg, plasma",8360 ng/mL
same,Cmax,"[3]; mouse, PO, 10 mg/kg, plasma",1440 ng/mL
same,clearance,"[3]; mouse, plasma, IV, 5 mg/kg",5.17 mL/min
same,half-life,"[3]; mouse, plasma, IV, 5 mg/kg",2.53 h
same,Tmax,"[3]; mouse, plasma, PO, 10 mg/kg",3.33 h
same,half-life,"[3]; mouse, plasma, PO, 10 mg/kg",3.25 h
same,Vd,"[3]; mouse, plasma, iv, 5 mg/kg, IV, 5 mg/kg, read-out: VSS",0.414 L/kg
same,bioavailability,"[3]; mouse, plasma, oral, 10 mg/kg, PO 10 mg/kg vs IV 5 mg/kg",~100%
same,maximum predicted concentration,[4],0.82 µg/mL
same,minimum predicted concentration,[4],0.1 µg/mL
